Reference: patent US20250009886A1, “COMPOSITIONS FOR SMALL MOLECULE THERAPEUTIC AGENT COMPOUNDS” (Delpor, Inc., priority 2016, published 2025)
In brackets after ≈: the same amount, converted by molar mass.

What was measured:
[1] = cited from earlier work; for Solubility: of the organic acid
[2] = In vitro release of risperidone from devices loaded with various risperidone addition salts (Example 5); type: physicochemical; settings: for Percent Risperidone Released at Day 15: cumulative percent of total risperidone released from device, two-fold molar excess of acid, PBS, 37° C., 15 days; for cumulative in vitro release of risperidone after 15 days (percent of total loaded drug): device in 100 mL PBS at 37° C., risperidone salt with two-fold molar excess of acid

| Percent Risperidone Released at Day 15 [2] [%] | cumulative in vitro release of risperidone after 15 days (percent of total loaded drug) [2] [%] | Compound | Solubility [1] [mg/mL] | insolubility in water ([1]; neutral free base, 20-25° C.) |
| --- | --- | --- | --- | --- |
| 92 | 92 | O=C(O)CCc1ccc(O)cc1 [Hydroxyphenylpropionic acid, 3-(4-hydroxyphenyl) propionic acid] | – | – |
| 45 | – | Nc1ccc(C(=O)O)cc1 [PABA, 4-aminobenzoic acid] | – | – |
| 55 | – | COc1cc(C(=O)O)ccc1O [Vinallic acid, vanillic acid] | – | – |
| 94 | 94 | O=C(O)CNC(=O)c1ccccc1 [Hippuric acid] | – | – |
| 2.6 | 2.6 | O=C(O)c1ccc(C(=O)O)cc1 [Terephthalic acid] | – | – |

Second part, the compound before the results:

| Compound | Percent Risperidone Released at Day 15 [2] [%] | cumulative in vitro release of risperidone after 15 days (percent of total loaded drug) [2] [%] | Solubility [1] [mg/mL] | insolubility in water ([1]; neutral free base, 20-25° C.) |
| --- | --- | --- | --- | --- |
| O=C(O)/C=C/c1ccc(O)cc1 [p-Coumaric, p-coumaric acid] | – | – | 1 to 10 | – |
| O=c1[nH]c(=O)c2[nH]c(=O)[nH]c2[nH]1 [Uric acid] | 16 | 16 | – | – |
| O=C(O)CCCCCCCCC(=O)O [Sebacic acid, sebacic acid] | 55 | – | – | – |
| O=C(O)C(O)c1ccccc1 (racemic) [rac-Mandelic] | – | – | 158.7 (≈ 1040 mM) | – |
| Cc1nc2n(c(=O)c1CCN1CCC(c3noc4cc(F)ccc34)CC1)CCCC2 [Risperidone, risperidone, reference compound] | – | – | – | > 10000 volumes of water per volume of drug |
